Source: US8080529B2, “Macrolides with anti-inflammatory activity” (Glaxo Group Limited, priority 2005, dated 2011)
Like-named read-outs stand apart in the source and are kept apart here.

How the values were obtained:
Assay type in all cases: cell-based
IL-8 = test: Inhibition of IL-8 production by stimulated human peripheral blood leukocytes in vitro; conditions: Homo sapiens, Leukocyte, read-out: Percentage of inhibition of IL-8 production
Experimental: (§1) Test substances used in in vitro experiments were dissolved in dimethyl sulfoxide (DMSO) (Kemika, Croatia) at concentrations of 50 mM and 10 mM, and were further diluted to final concentrations of 50 μM and 10 μM in 1 mL Dulbecco's modified Eagle medium (DMEM) supplemented with 1% heat inactivated fetal bovine serum (FBS), 1% L-glutamine, 50 U/ml penicillin, 50 μg/ml streptomycin and 2.5 μg/mL Fungizone (amphotericin B). Media and all media supplements were purchased from Gibco, Australia, except the FBS was purchased from Sigma, USA.
(§2) Peripheral blood leukocytes (PBL) were obtained from venous blood of healthy volunteers by sedimentation on 2% dextran T-500 (Amersham Biosciences, USA) and subsequent centrifugations of leukocyte rich plasma.
(§3) Peripheral blood leukocytes (PBL), isolated as described above, were seeded in a 48-well plate at a concentration of 3 to 5×10^6 cell per well in culture medium consisting of RPMI 1640 medium (Institute of Immunology, Croatia) supplemented with 10% heat-inactivated fetal calf serum (FCS, Biowhittaker, USA), 100 U/ml penicillin (Gibco, Australia), 100 μg/ml streptomycin (Gibco, Australia) and 2 mM L-glutamine (Gibco, Australia), and preincubated with the test compounds for 2 h at 37° C., in an atmosphere of 5% CO2, and 90% humidity. Then, stimuli (Sigma, USA) were added to a final concentration of 2 μg/mL lipopolysaccharide (LPS), 1 μg/mL phorbol 12-myristate 13-acetate (PMA) or 120 μg/mL zymosan. Samples were incubated overnight under conditions described above. At the end of incubation, the supernatants were transferred to eppendorf tubes and centrifuged for 10 min at 1500×g. Concentrations of human TNF-α, IL-1β, IL-6 and IL-8 were determined in cell supernatants by sandwich ELISA, using capture and detection antibodies (R&D Systems, Minneapolis, Minn.) according to the manufacturer's recommendations.
(§4) Inhibition (as percentage) was calculated using the following formula: % inhibition=(1−concentration of cytokines in sample/concentration of cytokines in positive control)×100.
(§5) The positive control refers to LPS-, PMA- or zymosan-stimulated samples that were not preincubated with test compounds.

TNF-α = test: Inhibition of TNF-α production by stimulated human peripheral blood leukocytes in vitro; conditions: Homo sapiens, Leukocyte, read-out: Percentage of inhibition of TNF-α production
Experimental: as §1, §2, §3, §4, §5

IL-6 = test: Inhibition of IL-6 production by stimulated human peripheral blood leukocytes in vitro; conditions: Homo sapiens, Leukocyte, read-out: Percentage of inhibition of IL-6 production
Experimental: as §1, §2, §3, §4, §5

Hep G2 = test: Cytotoxicity assay (MTT), Hep G2 cell line; conditions: 24 h
Experimental: (§6) To determine whether the anti-inflammatory activity of the test compounds was due to observed inhibition of cytokine production and inhibition of proliferation in vitro, and was not a consequence of cellular cytotoxicity, measurement of succinate dehydrogenase activity in living cells was performed. Cells were cultured for 24 h in RPM medium as described above at 37° C. the presence of the test compounds at concentrations of 50 μM and 12.5 μM. MTT [3-(4,5-dimethylthiazole-2-yl)-2,5-diphenyl tetrazolium bromide] (Promega, USA), a detection reagent, was then added and the cultures were incubated for 0.5-2 h. The amount of MTT-Formazan produced was determined using a spectrophotometer at 490 nm (Mosmann, J. Immunol. Methods, 1983, 65: 55-63).
(§7) The percentage of inhibition of cell growth was calculated using the following formula: % inhibition of cell growth=[…].

IL-1α = test: Inhibition of IL-1 production by stimulated human peripheral blood leukocytes in vitro; conditions: Homo sapiens, Leukocyte, read-out: Percentage of inhibition of IL-1α production
A549 = test: Cytotoxicity assay (MTT), A549 cell line; conditions: 24 h
Experimental: as §6, §7

| SMILES | inhibition at 10 µM (IL-8; LPS-stimulated PBL) [%] | inhibition at 10 µM (IL-8; PMA-stimulated PBL) [%] | inhibition at 10 µM (IL-8; zymosan-stimulated PBL) [%] | inhibition at 50 µM (IL-8; LPS-stimulated PBL) [%] | inhibition at 50 µM (IL-8; PMA-stimulated PBL) [%] | inhibition at 50 µM (IL-8; zymosan-stimulated PBL) [%] | inhibition at 10 µM (TNF-α; LPS-stimulated PBL) [%] | inhibition at 10 µM (TNF-α; PMA-stimulated PBL) [%] | inhibition at 10 µM (TNF-α; zymosan-stimulated PBL) [%] | inhibition at 50 µM (TNF-α; LPS-stimulated PBL) [%] | inhibition at 50 µM (TNF-α; PMA-stimulated PBL) [%] | inhibition at 50 µM (TNF-α; zymosan-stimulated PBL) [%] | inhibition at 10 µM (IL-6; LPS-stimulated PBL) [%] | inhibition at 10 µM (IL-6; PMA-stimulated PBL) [%] | inhibition at 10 µM (IL-6; zymosan-stimulated PBL) [%] | inhibition at 50 µM (IL-6; LPS-stimulated PBL) [%] | inhibition at 50 µM (IL-6; PMA-stimulated PBL) [%] | inhibition at 50 µM (IL-6; zymosan-stimulated PBL) [%] | Percentage of inhibition of cell growth (Hep G2; 12.5 μM) [%] | Percentage of inhibition of cell growth (Hep G2; 50 μM) [%] | also measured |
| --- | --- | --- | --- | --- | --- | --- | --- | --- | --- | --- | --- | --- | --- | --- | --- | --- | --- | --- | --- | --- | --- |
| CC[C@H]1OC(=O)[C@H](C)[C@@H](O[C@H]2C[C@@](C)(OC)[C@@H](OC(=O)CCNC(C)C)[C@H](C)O2)[C@H](C)[C@@H](O[C@@H]2O[C@H](C)C[C@H](N(C)C)[C@H]2O)[C@](C)(OC)C[C@@H](C)C(=O)N[C@H](C)[C@@H](O)[C@]1(C)O [Example 23] | 0 | 0 | 22 | 10 | 15 | 43 | 0 | 5 | 0 | 19 | 54 | 37 | 0 | 20 | 35 | 14 | 59 | 45 | 6 | 5 | inhibition at 10 µM (IL-1α; LPS-stimulated PBL): 2%; inhibition at 10 µM (IL-1α; PMA-stimulated PBL): 12%; inhibition at 10 µM (IL-1α; zymosan-stimulated PBL): 67%; inhibition at 50 µM (IL-1α; LPS-stimulated PBL): 39%; inhibition at 50 µM (IL-1α; PMA-stimulated PBL): 69%; inhibition at 50 µM (IL-1α; zymosan-stimulated PBL): 75%; Percentage of inhibition of cell growth (A549; 12.5 μM): 0%; Percentage of inhibition of cell growth (A549; 50 μM): 0% |
| CC[C@H]1OC(=O)[C@H](C)[C@@H](O[C@H]2C[C@@](C)(OC)[C@@H](OC(=O)CCN3CCCCCC3)[C@H](C)O2)[C@H](C)[C@@H](O[C@@H]2O[C@H](C)C[C@H](N(C)C)[C@H]2O)[C@](C)(OC)C[C@@H](C)C(=O)N[C@H](C)[C@@H](O)[C@]1(C)O [Example 41] | 29 | 10 | 19 | 87 | 42 | 63 | 39 | 30 | 27 | 95 | 70 | 99 | 25 | 59 | 36 | 92 | 79 | 100 | 7 | 3 | inhibition at 10 µM (IL-1α; LPS-stimulated PBL): 79%; inhibition at 10 µM (IL-1α; PMA-stimulated PBL): 52%; inhibition at 10 µM (IL-1α; zymosan-stimulated PBL): 80%; inhibition at 50 µM (IL-1α; LPS-stimulated PBL): 84%; inhibition at 50 µM (IL-1α; PMA-stimulated PBL): 100%; inhibition at 50 µM (IL-1α; zymosan-stimulated PBL): 100%; Percentage of inhibition of cell growth (A549; 12.5 μM): 1%; Percentage of inhibition of cell growth (A549; 50 μM): 0% |
| CC[C@H]1OC(=O)[C@H](C)[C@@H](O[C@H]2C[C@@](C)(OC)[C@@H](OC(=O)CCN3CC(C)CC(C)C3)[C@H](C)O2)[C@H](C)[C@@H](O[C@@H]2O[C@H](C)C[C@H](N(C)C)[C@H]2O)[C@](C)(OC)C[C@@H](C)C(=O)N[C@H](C)[C@@H](O)[C@]1(C)O (stereo partly shown) [Example 37] | 14 | 17 | 27 | 0 | 10 | 0 | 15 | 28 | 17 | 76 | 45 | 96 | 20 | 41 | 21 | 78 | 57 | 100 | 3 | 19 | inhibition at 10 µM (IL-1α; LPS-stimulated PBL): 60%; inhibition at 10 µM (IL-1α; PMA-stimulated PBL): 14%; inhibition at 10 µM (IL-1α; zymosan-stimulated PBL): 49%; inhibition at 50 µM (IL-1α; LPS-stimulated PBL): 69%; inhibition at 50 µM (IL-1α; PMA-stimulated PBL): 25%; inhibition at 50 µM (IL-1α; zymosan-stimulated PBL): 98%; Percentage of inhibition of cell growth (A549; 12.5 μM): 1%; Percentage of inhibition of cell growth (A549; 50 μM): 0% |
| CC[C@H]1OC(=O)[C@H](C)[C@@H](O[C@H]2C[C@@](C)(OC)[C@@H](OC(=O)CCN3CCN(CC4CCCN(C)C4)CC3)[C@H](C)O2)[C@H](C)[C@@H](O[C@@H]2O[C@H](C)C[C@H](N(C)C)[C@H]2O)[C@](C)(OC)C[C@@H](C)C(=O)N[C@H](C)[C@@H](O)[C@]1(C)O (stereo partly shown) [Example 33] | 0 | 0 | 0 | 11 | 10 | 40 | 16 | 23 | 16 | 50 | 74 | 53 | 8 | 9 | 13 | 30 | 49 | 40 | 5 | 4 | inhibition at 10 µM (IL-1α; LPS-stimulated PBL): 28%; inhibition at 10 µM (IL-1α; PMA-stimulated PBL): 33%; inhibition at 10 µM (IL-1α; zymosan-stimulated PBL): 55%; inhibition at 50 µM (IL-1α; LPS-stimulated PBL): 42%; inhibition at 50 µM (IL-1α; PMA-stimulated PBL): 75%; inhibition at 50 µM (IL-1α; zymosan-stimulated PBL): 85%; Percentage of inhibition of cell growth (A549; 12.5 μM): 0%; Percentage of inhibition of cell growth (A549; 50 μM): 0% |
